According to patent US6737383B1, “Herbicidal oxadiazolidines” (priority 1999, dated 2004):

Legend:
[1] = test system: bedstraw; assay: Test B pre/postemergence bedstraw; assay type: in vivo, Galium aparine
Summary of the method: (§1)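 Herbicidal effect was estimated by eye on a ten-point control scale after plants spent twelve to sixteen days in a greenhouse following soil or foliar treatment. Foliar sprays targeted plants at one to four leaves; all doses were formulated in a non-phytotoxic solvent with surfactant.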

[2] = test system: blackgrass; assay: Test B pre/postemergence blackgrass; assay type: in vivo, Alopecurus myosuroides
Summary of the method: as §1

[3] = test system: surinam grass; assay: Test B pre/postemergence surinam grass; assay type: in vivo, Brachiaria decumbens
Summary of the method: as §1

[4] = test system: smallflower flatsedge; assay: Test B flood test smallflower flatsedge; assay type: in vivo, Cyperus difformis
Summary of the method: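 Flood test on plants grown to the 2-leaf stage; treated plants kept in greenhouse twelve to sixteen days, then visually rated against controls on a 0 (no effect) to 10 (complete control) scale.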

[5] = Postemergence, Rate 31 g/ha, visual rating, scale 0 to 10 (0 no effect, 10 complete control)
[6] = Preemergence, Rate 31 g/ha, visual rating, scale 0 to 10 (0 no effect, 10 complete control)
[7] = Preemergence, Rate 62 g/ha, scale of 0 to 10 where 0 is no effect and 10 is complete control
[8] = Preemergence, Rate 125 g/ha, scale of 0 to 10 where 0 is no effect and 10 is complete control
[9] = Preemergence, Rate 250 g/ha, scale 0 to 10, 0 is no effect, 10 is complete control
[10] = Rate 62 g/ha, Postemergence, scale 0 to 10 (0 no effect, 10 complete control)
[11] = Rate 125 g/ha, Postemergence, scale 0 to 10, 0 is no effect, 10 is complete control
[12] = Postemergence, Rate 250 g/ha, scale 0 to 10, 0 no effect, 10 complete control
[13] = Postemergence, Rate 62 g/ha, scale 0 to 10, 0 is no effect, 10 is complete control
[14] = Preemergence, Rate 62 g/ha, scale 0 to 10 (0 no effect, 10 complete control)
[15] = Preemergence, Rate 125 g/ha, scale 0 to 10 (0 no effect, 10 complete control)
[16] = Preemergence, Rate 250 g/ha, scale of 0 to 10 where 0 is no effect and 10 is complete control
[17] = Rate 125 g/ha, Postemergence, scale 0 to 10, 0 no effect, 10 complete control
[18] = Rate 500 g/ha, Postemergence, scale 0 to 10, 0 no effect, 10 complete control
[19] = Rate 500 g/ha, Postemergence, scale of 0 to 10 where 0 is no effect and 10 is complete control
[20] = Rate 500 g/ha, listed under Postemergence (flood test species), scale 0 to 10, 0 no effect, 10 complete control
[21] = Preemergence, Rate 500 g/ha, scale 0 (no effect) to 10 (complete control)

CC(C)N(C(=O)n1oc(=O)n(CC2=NOCCC2)c1=O)c1ccc(Cl)cc1 [Compound 450]
Bedstraw plant response rating [1, 5]: 0 | Blackgrass plant response rating [2, 5]: 0 | Blackgrass plant response rating ([2]; Postemergence, Rate 250 g/ha, scale 0 to 10): 2 | Blackgrass plant response rating [2, 6]: 0 | Plant response rating, Blackgrass [2, 7]: 0 | Plant response rating, Blackgrass [2, 8]: 2 | Blackgrass plant response rating [2, 9]: 4 | Blackgrass plant response rating [2, 10]: 0 | Blackgrass plant response rating [2, 11]: 0 | B. signalgrass plant response rating [3, 5]: 0 | B. signalgrass plant response rating [3, 12]: 0 | B. signalgrass plant response rating [3, 6]: 0 | Plant response rating, B. signalgrass [3, 7]: 0 | Plant response rating, B. signalgrass [3, 8]: 1 | B. signalgrass plant response rating [3, 9]: 3 | B. signalgrass plant response rating [3, 10]: 0 | B. signalgrass plant response rating [3, 11]: 0 | S. Flatsedge plant response rating ([4]; Rate 31 g/ha, Pre-emergence section (flood test species), scale 0 to 10): 0 | Plant response rating, S. Flatsedge (0 to 10 scale, 0 is no effect, 10 is complete control) ([4]; Rate 62 g/ha, flood test species, Pre-emergence, visual evaluation after twelve to sixteen days): 0 | S. Flatsedge plant response rating (0 to 10 scale, 0 is no effect, 10 is complete control) ([4]; Rate 125 g/ha, under heading Pre-emergence, flood test species, visual evaluation after twelve to sixteen days): 0 | S. Flatsedge plant response rating ([4]; Rate 250 g/ha, Pre-emergence (flood test species), scale 0 to 10, 0 is no effect, 10 is complete control): 0

CCc1noc(CC)c1-n1c(=O)on(C(=O)N(c2ccc(F)cc2)C(C)C)c1=O [Compound 102]
Bedstraw plant response rating [1, 13]: 0 | Bedstraw plant response rating [1, 12]: 0 | Bedstraw plant response rating [1, 14]: 0 | Plant response rating, Bedstraw [1, 15]: 0 | Plant response rating, Bedstraw [1, 16]: 0 | Bedstraw plant response rating [1, 17]: 0 | Bedstraw plant response rating [1, 18]: 3 | Blackgrass plant response rating ([2]; Postemergence, Rate 125 g/ha, scale of 0 to 10 where 0 is no effect and 10 is complete control): 0 | Blackgrass plant response rating [2, 12]: 0 | Blackgrass plant response rating [2, 14]: 0 | Plant response rating, Blackgrass [2, 15]: 0 | Plant response rating, Blackgrass [2, 16]: 2 | Blackgrass plant response rating ([2]; Rate 62 g/ha, Postemergence, scale of 0 to 10 where 0 is no effect and 10 is complete control): 0 | Blackgrass plant response rating [2, 18]: 0 | B. signalgrass plant response rating [3, 13]: 0 | B. signalgrass plant response rating [3, 12]: 0 | B. signalgrass plant response rating [3, 14]: 0 | Plant response rating, B. signalgrass [3, 15]: 0 | Plant response rating, B. signalgrass [3, 16]: 0 | B. signalgrass plant response rating [3, 17]: 0 | B. signalgrass plant response rating [3, 19]: 0 | S. Flatsedge plant response rating ([4]; Postemergence (flood test species), Rate 125 g/ha, scale of 0 to 10 where 0 is no effect and 10 is complete control): 0 | S. Flatsedge plant response rating ([4]; Rate 62 g/ha, Postemergence section, flood test species, scale of 0 to 10 where 0 is no effect and 10 is complete control): 0 | Plant response rating, S. Flatsedge ([4]; Rate 250 g/ha, Postemergence (flood test), scale 0 to 10, 0 is no effect, 10 is complete control): 0 | S. Flatsedge plant response rating [4, 20]: 0

CCN(C(=O)n1oc(=O)n(-c2c(C)cc(C)cc2C)c1=O)C1CCCCC1 [Compound 63]
Bedstraw plant response rating [1, 13]: 0 | Bedstraw plant response rating [1, 12]: 3 | Bedstraw plant response rating [1, 14]: 0 | Plant response rating, Bedstraw [1, 15]: 0 | Plant response rating, Bedstraw [1, 16]: 0 | Bedstraw plant response rating [1, 21]: 3 | Bedstraw plant response rating [1, 17]: 0 | Blackgrass plant response rating [2, 13]: 0 | Blackgrass plant response rating [2, 12]: 0 | Blackgrass plant response rating [2, 14]: 0 | Plant response rating, Blackgrass [2, 15]: 0 | Plant response rating, Blackgrass [2, 16]: 0 | Blackgrass plant response rating [2, 21]: 0 | Blackgrass plant response rating [2, 17]: 0 | Blackgrass plant response rating [2, 18]: 0 | B. signalgrass plant response rating [3, 13]: 0 | B. signalgrass plant response rating [3, 12]: 0 | B. signalgrass plant response rating [3, 14]: 0 | Plant response rating, B. signalgrass [3, 15]: 0 | Plant response rating, B. signalgrass [3, 16]: 0 | B. signalgrass plant response rating [3, 21]: 0 | B. signalgrass plant response rating [3, 17]: 0 | B. signalgrass plant response rating [3, 19]: 0 | S. Flatsedge plant response rating [4, 13]: 0 | S. Flatsedge plant response rating ([4]; Rate 125 g/ha, Postemergence section (flood test species), scale 0 to 10, 0 no effect, 10 complete control): 0 | S. Flatsedge plant response rating [4, 20]: 0 | S. Flatsedge plant response rating ([4]; flood test, listed under Postemergence, Rate 250 g/ha, scale 0 to 10, 0 no effect, 10 complete control): 0
